Laboratory results taken from PubChem BioAssay (NCI).
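Following 48 hours of exposure in 96-well plates, responses at five concentrations were used to interpolate endpoints linearly. Definition used: TGI = concentration required for complete inhibition of growth.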

Legend:
Experiment in all cases: growth of human tumour cells (NCI), 48 h
[1] = system: 786-0 renal
[2] = system: A498 renal
[3] = system: A549 NSCLC
[4] = system: ACHN renal
[5] = system: BT-549 breast
[6] = system: CAKI-1 renal
[7] = system: CCRF-CEM leukemia
[8] = system: COLO 205 colon
[9] = system: DU-145 prostate
[10] = system: EKVX NSCLC
[11] = system: HCC-2998 colon
[12] = system: HCT-116 colon
[13] = system: HCT-15 colon
[14] = system: HL-60(TB) leukemia
[15] = system: HOP-62 NSCLC
[16] = system: HOP-92 NSCLC
[17] = system: HS 578T breast
[18] = system: HT29 colon
[19] = system: IGROV1 ovarian
[20] = system: K-562 leukemia
[21] = system: KM12 colon
[22] = system: LOX IMVI melanoma
[23] = system: M14 melanoma
[24] = system: MALME-3M melanoma
[25] = system: MCF7 breast
[26] = system: MDA-MB-231 breast
[27] = system: MDA-MB-435
[28] = system: MDA-N
[29] = system: MOLT-4 leukemia
[30] = system: NCI-H226 lung
[31] = system: NCI-H23 lung
[32] = system: NCI-H460 lung
[33] = system: NCI-H522 lung
[34] = system: NCI/ADR-RES ovarian
[35] = system: OVCAR-3 ovarian
[36] = system: OVCAR-4 ovarian
[37] = system: OVCAR-5 ovarian
[38] = system: OVCAR-8 ovarian
[39] = system: PC-3 prostate
[40] = system: RPMI-8226 leukemia
[41] = system: RXF 393 renal
[42] = system: SF-268 CNS
[43] = system: SF-295 CNS
[44] = system: SF-539 CNS
[45] = system: SK-MEL-2 melanoma
[46] = system: SK-MEL-28 melanoma
[47] = system: SK-MEL-5 melanoma
[48] = system: SK-OV-3 ovarian
[49] = system: SN12C renal
[50] = system: SNB-19 CNS
[51] = system: SNB-75 CNS
[52] = system: SR leukemia
[53] = system: SW-620 colon
[54] = system: T-47D breast
[55] = system: TK-10 renal
[56] = system: U251 CNS
[57] = system: UACC-257 melanoma
[58] = system: UACC-62 melanoma
[59] = system: UO-31 renal

Measured: TGI

CCCCCCCCCCCCCCCCCCNc1ccn(C2OC(CO)C(OP(=O)(O)OCC(COP(=O)(O)OCC3OC(n4cc(F)c(NCCCCCCCCCCCCCCCCCC)nc4=O)CC3O)OC(=O)CCCCCCCCCCCCCCC)C2O)c(=O)n1 (configuration not stated)
> 100 µM: [1] | [2] | [3] | [4] | [5] | [6] | [7] | [8] | [9] | [10] | [11] | [12] | [13] | [14] | [15] | [16] | [17] | [18] | [19] | [20] | [21] | [22] | [23] | [24] | [25] | [26] | [27] | [28] | [29] | [30] | [31] | [32] | [33] | [34] | [35] | [36] | [37] | [38] | [39] | [40] | [41] | [42] | [43] | [44] | [45] | [46] | [47] | [48] | [49] | [50] | [51] | [52] | [53] | [54] | [55] | [56] | [57] | [58] | [59]

COc1ccc(N2C(=O)CC(=O)N(C(=O)CCCCCCCCC(=O)N3C(=O)CC(=O)N(c4ccc(OC)cc4)C3=S)C2=S)cc1
> 100 µM: [1] | [2] | [3] | [4] | [5] | [6] | [7] | [8] | [9] | [10] | [11] | [12] | [13] | [14] | [15] | [16] | [17] | [18] | [20] | [21] | [22] | [23] | [24] | [25] | [26] | [27] | [28] | [29] | [30] | [31] | [32] | [33] | [34] | [35] | [36] | [37] | [38] | [39] | [40] | [41] | [42] | [43] | [44] | [45] | [46] | [47] | [48] | [49] | [50] | [51] | [52] | [53] | [54] | [55] | [56] | [57] | [58] | [59]
